Experiments:
[1] = system: HeLa cervical cancer cell line; assay: MTT antiproliferative assay, HeLa; type: cell-based; conditions: 10 µM, 24 h
Procedure: (§1) At least, three independent experiments were performed.

FAK = FAK (Homo sapiens, UniProt Q05397); assay: Z`-LYTE kinase inhibitory assay, FAK
EGFR = EGFR (Homo sapiens, UniProt P00533); assay: Z`-LYTE kinase inhibitory assay, EGFR
VEGFR-2 = biological target: T1, VEGFR-2 (Homo sapiens, UniProt P35968); assay: Z`-LYTE kinase profiling, VEGFR-2; type: biochemical
T1 construct: purchased Invitrogen/Life Technologies

recombinant human TOP1 = biological target: T2, recombinant human TOP1 (Homo sapiens, UniProt P11387); assay: Topoisomerase I-mediated DNA cleavage assay; conditions: tested at 0.1, 1, 10, 100 µM
T2 sequence (P11387 1-765): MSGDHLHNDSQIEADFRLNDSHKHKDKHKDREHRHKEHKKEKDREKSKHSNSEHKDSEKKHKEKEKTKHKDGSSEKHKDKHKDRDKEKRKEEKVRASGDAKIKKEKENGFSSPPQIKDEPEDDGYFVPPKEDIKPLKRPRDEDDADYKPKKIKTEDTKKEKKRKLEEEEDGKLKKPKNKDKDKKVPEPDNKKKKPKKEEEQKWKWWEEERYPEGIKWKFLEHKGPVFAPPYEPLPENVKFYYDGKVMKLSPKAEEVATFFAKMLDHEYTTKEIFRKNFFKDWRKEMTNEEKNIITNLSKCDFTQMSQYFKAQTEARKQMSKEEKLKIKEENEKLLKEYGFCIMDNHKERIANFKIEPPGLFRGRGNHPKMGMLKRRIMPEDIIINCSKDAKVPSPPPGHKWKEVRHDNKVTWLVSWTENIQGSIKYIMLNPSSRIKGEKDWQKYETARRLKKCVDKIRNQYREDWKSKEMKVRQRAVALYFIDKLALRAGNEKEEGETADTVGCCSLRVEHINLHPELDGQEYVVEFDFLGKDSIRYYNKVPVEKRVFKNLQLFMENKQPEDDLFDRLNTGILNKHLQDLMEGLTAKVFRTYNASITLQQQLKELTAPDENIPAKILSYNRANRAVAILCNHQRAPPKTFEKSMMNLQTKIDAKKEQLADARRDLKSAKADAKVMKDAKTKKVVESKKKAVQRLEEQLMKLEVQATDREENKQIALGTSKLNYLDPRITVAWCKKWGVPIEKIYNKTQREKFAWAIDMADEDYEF
Procedure: Radiolabeled DNA was incubated with recombinant human TOP1 in 20 µL reaction buffer (10 mmol/L Tris-HCl, pH 7.5, 50 mmol/L KCl, 5 mmol/L MgCl2, 0.1 mmol/L EDTA, and 15 µg/mL BSA) at 30 °C for 20 min in the presence of the indicated drug concentrations. Reactions were terminated by adding SDS (0.5% final concentration) followed by the addition of two volumes of loading dye (80% formamide, 10 mmol/L sodium hydroxide, 1 mmol/L sodium EDTA, 0.1% xylene cyanol, and 0.1% bromophenol blue). Aliquots of reaction mixtures were subjected to 20% denaturing PAGE. Gels were dried and visualised by using PhosphorImager and Image Quant software (Molecular Dynamics).

VEGFR-1 = biological target: T3, VEGFR-1 (Homo sapiens, UniProt P17948); assay: Z`-LYTE kinase profiling, VEGFR-1; type: biochemical
T3 construct: purchased Invitrogen/Life Technologies
T3 sequence (P17948 27-1338): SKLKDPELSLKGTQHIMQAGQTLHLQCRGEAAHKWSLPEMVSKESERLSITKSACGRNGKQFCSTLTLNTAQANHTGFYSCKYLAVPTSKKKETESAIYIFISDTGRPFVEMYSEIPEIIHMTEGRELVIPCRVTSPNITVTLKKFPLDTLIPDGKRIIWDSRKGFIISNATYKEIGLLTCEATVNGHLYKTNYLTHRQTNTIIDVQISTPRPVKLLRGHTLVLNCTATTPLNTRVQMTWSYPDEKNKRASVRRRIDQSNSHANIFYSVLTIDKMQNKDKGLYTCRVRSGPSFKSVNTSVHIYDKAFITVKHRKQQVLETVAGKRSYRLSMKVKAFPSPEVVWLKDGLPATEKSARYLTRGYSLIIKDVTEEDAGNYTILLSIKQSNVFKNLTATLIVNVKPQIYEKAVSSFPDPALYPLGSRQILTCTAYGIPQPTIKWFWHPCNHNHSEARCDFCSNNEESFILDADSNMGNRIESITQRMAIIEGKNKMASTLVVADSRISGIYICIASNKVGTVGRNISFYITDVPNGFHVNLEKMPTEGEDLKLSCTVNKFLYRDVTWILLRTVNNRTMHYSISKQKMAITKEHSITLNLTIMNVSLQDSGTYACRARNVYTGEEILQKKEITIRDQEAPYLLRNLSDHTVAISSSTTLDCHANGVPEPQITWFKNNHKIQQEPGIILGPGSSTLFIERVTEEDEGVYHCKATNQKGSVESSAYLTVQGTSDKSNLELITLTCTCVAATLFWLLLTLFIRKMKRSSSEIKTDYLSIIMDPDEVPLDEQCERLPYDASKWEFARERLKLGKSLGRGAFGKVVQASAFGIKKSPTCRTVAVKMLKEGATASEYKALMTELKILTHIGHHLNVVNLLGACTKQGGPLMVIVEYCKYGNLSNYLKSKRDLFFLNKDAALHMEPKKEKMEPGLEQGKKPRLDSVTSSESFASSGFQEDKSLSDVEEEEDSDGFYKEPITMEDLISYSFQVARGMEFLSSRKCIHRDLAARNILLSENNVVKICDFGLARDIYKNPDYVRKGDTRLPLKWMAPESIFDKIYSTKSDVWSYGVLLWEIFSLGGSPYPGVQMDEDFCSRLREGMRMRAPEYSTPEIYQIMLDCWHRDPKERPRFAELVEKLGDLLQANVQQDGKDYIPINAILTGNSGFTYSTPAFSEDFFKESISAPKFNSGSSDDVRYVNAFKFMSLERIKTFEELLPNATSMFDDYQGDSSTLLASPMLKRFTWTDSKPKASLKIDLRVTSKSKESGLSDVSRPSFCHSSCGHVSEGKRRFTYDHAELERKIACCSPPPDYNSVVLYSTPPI

[2] = system: MCF-7 breast cancer cell line; assay: MTT antiproliferative assay, MCF-7; type: cell-based; conditions: 10 µM, 24 h
Procedure: as §1

[3] = system: DLD-1 colorectal cancer cell line; assay: MTT antiproliferative assay, DLD-1; conditions: for GI% DLD1: 10 µM, 24 h, MTT; for IC50: Homo sapiens, DLD-1, 24 h, read-out: IC50 DLD1 (half maximal growth inhibitory concentration)
FRK = biological target: T4, FRK (Homo sapiens, UniProt P42685); assay: Z`-LYTE kinase profiling, FRK; type: biochemical
T4 construct: purchased Invitrogen/Life Technologies

c-Src = biological target: T5, c-Src (Homo sapiens, UniProt P12931); assay: Z`-LYTE kinase profiling, c-Src; type: biochemical
T5 construct: purchased Invitrogen/Life Technologies
T5 sequence (P12931 whole entry): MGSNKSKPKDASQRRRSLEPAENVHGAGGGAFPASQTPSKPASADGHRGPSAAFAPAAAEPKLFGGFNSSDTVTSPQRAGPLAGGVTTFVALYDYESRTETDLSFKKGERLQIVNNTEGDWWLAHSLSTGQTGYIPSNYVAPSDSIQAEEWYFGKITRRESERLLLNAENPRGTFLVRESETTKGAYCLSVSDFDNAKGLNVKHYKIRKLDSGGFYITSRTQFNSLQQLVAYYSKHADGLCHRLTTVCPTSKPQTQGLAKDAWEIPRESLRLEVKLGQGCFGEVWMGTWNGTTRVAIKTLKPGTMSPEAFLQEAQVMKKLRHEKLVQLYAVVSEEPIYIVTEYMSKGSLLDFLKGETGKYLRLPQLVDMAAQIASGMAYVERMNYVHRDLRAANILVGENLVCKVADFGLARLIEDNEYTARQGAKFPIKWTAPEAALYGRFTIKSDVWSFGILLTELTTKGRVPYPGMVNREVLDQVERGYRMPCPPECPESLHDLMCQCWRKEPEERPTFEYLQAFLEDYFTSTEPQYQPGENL

[4] = system: MDMBA-231 breast cancer cell line; assay: MTT antiproliferative assay, MDMBA-231; type: cell-based; conditions: 10 µM, 24 h
Procedure: as §1

BTK = biological target: T6, BTK (Homo sapiens, UniProt Q06187); assay: Z`-LYTE kinase profiling, BTK; type: biochemical
T6 construct: purchased Invitrogen/Life Technologies
T6 sequence (Q06187 whole entry): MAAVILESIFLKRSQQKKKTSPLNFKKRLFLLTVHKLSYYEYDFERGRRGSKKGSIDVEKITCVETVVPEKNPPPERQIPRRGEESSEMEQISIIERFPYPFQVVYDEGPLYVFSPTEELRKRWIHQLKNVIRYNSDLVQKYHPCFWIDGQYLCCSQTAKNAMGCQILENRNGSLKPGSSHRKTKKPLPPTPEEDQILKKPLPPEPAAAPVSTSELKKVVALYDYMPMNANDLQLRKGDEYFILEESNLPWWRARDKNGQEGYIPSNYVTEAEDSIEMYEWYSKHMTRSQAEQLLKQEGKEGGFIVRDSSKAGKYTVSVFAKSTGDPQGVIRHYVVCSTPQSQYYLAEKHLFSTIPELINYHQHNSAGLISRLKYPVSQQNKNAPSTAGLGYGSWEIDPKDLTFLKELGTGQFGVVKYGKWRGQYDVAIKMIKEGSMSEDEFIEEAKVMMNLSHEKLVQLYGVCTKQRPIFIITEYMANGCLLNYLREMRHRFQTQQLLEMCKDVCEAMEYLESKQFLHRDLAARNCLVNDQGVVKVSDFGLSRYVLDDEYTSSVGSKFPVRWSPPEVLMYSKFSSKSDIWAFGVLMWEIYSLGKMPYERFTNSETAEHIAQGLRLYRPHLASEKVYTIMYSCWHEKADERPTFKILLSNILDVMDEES

[5] = system: HCT-116 colorectal cancer cell line; assay: MTT antiproliferative assay, HCT-116; conditions: for GI% HCT-116: 10 µM, 24 h, MTT; for IC50: Homo sapiens, HCT-116, 24 h, read-out: IC50 HCT-116 (half maximal growth inhibitory concentration)
IGF-1R = biological target: T7, IGF-1R (Homo sapiens, UniProt P08069); assay: Z`-LYTE kinase profiling, IGF-1R; type: biochemical
T7 construct: purchased Invitrogen/Life Technologies
T7 sequence (P08069 31-1367): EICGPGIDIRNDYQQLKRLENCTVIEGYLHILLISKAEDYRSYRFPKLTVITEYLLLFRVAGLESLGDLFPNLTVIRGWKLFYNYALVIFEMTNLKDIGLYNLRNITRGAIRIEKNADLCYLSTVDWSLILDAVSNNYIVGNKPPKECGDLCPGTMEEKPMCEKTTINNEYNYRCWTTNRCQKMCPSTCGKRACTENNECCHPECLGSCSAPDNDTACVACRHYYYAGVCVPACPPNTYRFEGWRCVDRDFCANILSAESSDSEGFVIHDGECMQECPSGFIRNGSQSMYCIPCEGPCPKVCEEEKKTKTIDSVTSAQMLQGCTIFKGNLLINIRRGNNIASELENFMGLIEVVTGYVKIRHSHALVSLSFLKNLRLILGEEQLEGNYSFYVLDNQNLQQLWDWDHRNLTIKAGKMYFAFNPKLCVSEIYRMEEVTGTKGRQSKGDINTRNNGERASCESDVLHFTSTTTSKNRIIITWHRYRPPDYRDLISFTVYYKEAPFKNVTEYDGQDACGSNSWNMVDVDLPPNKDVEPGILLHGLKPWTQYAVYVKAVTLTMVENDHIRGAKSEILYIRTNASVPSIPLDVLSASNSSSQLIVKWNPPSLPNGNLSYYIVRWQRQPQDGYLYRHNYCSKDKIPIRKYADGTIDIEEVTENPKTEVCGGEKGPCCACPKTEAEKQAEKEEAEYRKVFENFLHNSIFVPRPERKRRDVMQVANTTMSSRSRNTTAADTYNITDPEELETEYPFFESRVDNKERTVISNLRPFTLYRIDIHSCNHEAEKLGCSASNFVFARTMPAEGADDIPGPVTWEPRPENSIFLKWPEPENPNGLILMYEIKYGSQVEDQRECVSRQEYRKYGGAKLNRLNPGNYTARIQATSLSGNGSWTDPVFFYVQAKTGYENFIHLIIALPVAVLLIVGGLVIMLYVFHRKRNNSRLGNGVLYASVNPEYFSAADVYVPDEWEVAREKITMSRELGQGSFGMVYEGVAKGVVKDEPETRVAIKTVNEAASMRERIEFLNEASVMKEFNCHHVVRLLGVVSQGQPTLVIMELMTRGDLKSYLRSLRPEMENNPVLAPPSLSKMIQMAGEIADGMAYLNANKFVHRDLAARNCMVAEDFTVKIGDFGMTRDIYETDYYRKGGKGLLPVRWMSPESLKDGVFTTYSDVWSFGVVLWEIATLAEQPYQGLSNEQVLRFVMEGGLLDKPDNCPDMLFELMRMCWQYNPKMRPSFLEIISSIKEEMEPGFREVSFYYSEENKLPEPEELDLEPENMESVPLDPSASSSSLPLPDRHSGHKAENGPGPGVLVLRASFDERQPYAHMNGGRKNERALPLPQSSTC

HER-2 = biological target: T8, HER-2 (Homo sapiens, UniProt P04626); assay: Z`-LYTE kinase profiling, HER-2; type: biochemical
T8 construct: purchased Invitrogen/Life Technologies

Chain of FAK (Q05397 whole entry): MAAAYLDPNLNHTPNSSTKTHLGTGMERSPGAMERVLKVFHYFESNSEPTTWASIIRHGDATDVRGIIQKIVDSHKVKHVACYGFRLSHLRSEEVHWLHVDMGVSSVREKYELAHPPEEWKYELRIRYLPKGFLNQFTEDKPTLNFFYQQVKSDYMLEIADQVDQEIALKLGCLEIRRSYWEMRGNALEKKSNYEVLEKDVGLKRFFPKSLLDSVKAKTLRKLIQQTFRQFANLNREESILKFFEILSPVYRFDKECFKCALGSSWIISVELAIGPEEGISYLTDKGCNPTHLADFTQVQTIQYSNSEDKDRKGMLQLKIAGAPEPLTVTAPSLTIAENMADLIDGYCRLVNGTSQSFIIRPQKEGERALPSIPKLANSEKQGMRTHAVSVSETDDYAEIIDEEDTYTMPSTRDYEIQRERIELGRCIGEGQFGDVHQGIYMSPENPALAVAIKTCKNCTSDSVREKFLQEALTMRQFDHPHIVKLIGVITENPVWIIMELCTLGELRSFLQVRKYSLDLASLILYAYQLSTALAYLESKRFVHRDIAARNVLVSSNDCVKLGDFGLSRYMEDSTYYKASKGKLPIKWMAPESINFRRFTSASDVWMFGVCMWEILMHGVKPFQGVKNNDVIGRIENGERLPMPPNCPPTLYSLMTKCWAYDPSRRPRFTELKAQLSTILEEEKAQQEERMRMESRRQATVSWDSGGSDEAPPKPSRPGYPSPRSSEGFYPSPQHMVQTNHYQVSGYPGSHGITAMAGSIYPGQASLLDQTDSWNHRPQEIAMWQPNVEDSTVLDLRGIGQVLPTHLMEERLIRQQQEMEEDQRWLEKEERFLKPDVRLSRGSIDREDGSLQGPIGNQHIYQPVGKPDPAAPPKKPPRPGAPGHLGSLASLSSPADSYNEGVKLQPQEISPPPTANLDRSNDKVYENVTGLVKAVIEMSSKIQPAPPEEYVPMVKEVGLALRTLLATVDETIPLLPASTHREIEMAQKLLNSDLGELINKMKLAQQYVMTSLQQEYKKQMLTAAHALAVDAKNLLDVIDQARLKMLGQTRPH

Structure (SMILES)	IC50 (FAK)	IC50 (EGFR)	IC50 (VEGFR-2)	TOP1 inhibitory activity (semiquantitative score relative to 1 µM CPT) (recombinant human TOP1)	IC50 (VEGFR-1)	IC50 [3]	IC50 (FRK)	IC50 (c-Src)	IC50 (BTK)	IC50 [5]	IC50 (IGF-1R)	melting point	IC50 (HER-2)	GI% Hela [1]	GI% MCF-7 [2]	GI% DLD1 [3]	GI% MDMBA-231 [4]	GI% HCT-116 [5]
FC(F)(F)c1ccc(-c2cc(OCCCN3CCOCC3)c3cc4c(cc3n2)OCO4)cc1 [12d, 8-(3-morpholinopropoxy)-6-(4-(trifluoromethyl)phenyl)-[1,3]dioxolo[4,5-g]quinoline]	273 ± 2.84 nM	450.2 ± 4.25 nM	855 nM	0	2540 nM	74900 ± 5460 nM	6530 nM	1450 nM	653 nM	9200 ± 2490 nM	453 nM	138 to 140 °C	897 nM	36.67%	26.54%	22.58%	9.36%	54.37%
Clc1ccc(-c2cc(OCCCn3ccnc3)c3cc(Br)ccc3n2)cc1 [16a, 4-(3-(1H-imidazol-1-yl)propoxy)-6-bromo-2-(4-chlorophenyl)quinoline]	44.1 ± 3.26 nM	222 ± 8.25 nM	3410 nM	0	1960 nM	8220 ± 1120 nM	6150 nM	1350 nM	4800 nM	6150 ± 1300 nM	5230 nM	149 to 151 °C	2020 nM	47.35%	22.97%	60.08%	51.24%	76.17%
Clc1ccc(-c2cc(OCCCN3CCOCC3)c3cc(Br)ccc3n2)cc1 [16b, 4-(3-((6-bromo-2-(4-chlorophenyl)quinolin-4-yl)oxy)propyl)morpholine]	50.4 ± 4.81 nM	313 ± 15.3 nM	3230 nM	0	1270 nM	8690 ± 2640 nM	3130 nM	1320 nM	2880 nM	4220 ± 1050 nM	3490 nM	137 to 139 °C	2310 nM	35.94%	19.38%	55.82%	45.31%	87.61%
Fc1ccc(-c2cc(OCCCn3ccnc3)c3cc(Br)ccc3n2)cc1 [16c, 4-(3-(1H-imidazol-1-yl)propoxy)-6-bromo-2-(4-fluorophenyl)quinoline]	224 ± 10.5 nM	485 ± 11.4 nM	5100 nM	+ (+: 25–50% 1 µM CPT)	2560 nM	> 100000 nM	6670 nM	1730 nM	5620 nM	88000 ± 5240 nM	6690 nM	144 to 146 °C	1610 nM	8.67%	4.36%	12.25%	20.11%	18.14%
COc1ccc(-c2ccc3nc(-c4ccc(Cl)cc4)cc(OCCCn4ccnc4)c3c2)cc1 [20a, 4-(3-(1H-imidazol-1-yl)propoxy)-2-(4-chlorophenyl)-6-(4-methoxyphenyl)quinoline]	77.3 ± 4.37 nM	122 ± 9.4 nM	1250 nM	0	1350 nM	13000 ± 3690 nM	2620 nM	2900 nM	8670 nM	24100 ± 2460 nM	2860 nM	210 to 212 °C	1010 nM	22.06%	15.23%	44.98%	29.08%	36.71%
COc1ccc(-c2ccc3nc(-c4ccc(Cl)cc4)cc(OCCCN4CCOCC4)c3c2)cc1 [20b, 4-(3-((2-(4-chlorophenyl)-6-(4-methoxyphenyl)quinolin-4-yl)oxy)propyl)morpholine]	63.2 ± 3.25 nM	245 ± 12.3 nM	2300 nM	0	4740 nM	9650 ± 2150 nM	8710 nM	4210 nM	8980 nM	7340 ± 1820 nM	8910 nM	173 to 175 °C	1650 nM	34.02%	29.37%	53.15%	48.31%	71.05%

Further lines, with some results ahead:

IC50 (FAK)	IC50 (EGFR)	IC50 (VEGFR-2)	TOP1 inhibitory activity (semiquantitative score relative to 1 µM CPT) (recombinant human TOP1)	IC50 (VEGFR-1)	IC50 [3]	IC50 (FRK)	IC50 (c-Src)	IC50 (BTK)	IC50 [5]	IC50 (IGF-1R)	melting point	IC50 (HER-2)	Structure (SMILES)	GI% Hela [1]	GI% MCF-7 [2]	GI% DLD1 [3]	GI% MDMBA-231 [4]	GI% HCT-116 [5]
91 ± 5.85 nM	362 ± 5.26 nM	8970 nM	0	1750 nM	16000 ± 1100 nM	1440 nM	9050 nM	8670 nM	12500 ± 3050 nM	1880 nM	176 to 178 °C	1230 nM	COc1ccc(-c2ccc3nc(-c4ccc(F)cc4)cc(OCCCn4ccnc4)c3c2)cc1 [20c, 4-(3-(1H-imidazol-1-yl)propoxy)-2-(4-fluorophenyl)-6-(4-methoxyphenyl)quinoline]	22.08%	76.82%	41.34%	32.11%	38.64%
125 ± 3.15 nM	147 ± 8.37 nM	294 nM	0	712 nM	65300 ± 5360 nM	133 nM	251 nM	1780 nM	29500 ± 4150 nM	41.2 nM	168 to 170 °C	1770 nM	COc1ccc(-c2ccc3nc(-c4ccc(F)cc4)cc(OCCCN4CCOCC4)c3c2)cc1 [20d, 4-(3-((2-(4-fluorophenyl)-6-(4-methoxyphenyl)quinolin-4-yl)oxy)propyl)morpholine]	11.97%	15.34%	24.65%	27.05%	36.91%
25.4 ± 3.48 nM	33.7 ± 1.02 nM	243 nM	0	720 nM	4460 ± 650 nM	216 nM	138 nM	271 nM	4750 ± 1020 nM	3010 nM	130 to 132 °C	98.8 nM	Clc1ccc(-c2cc(OCCCn3ccnc3)c3cc(-c4ccco4)ccc3n2)cc1 [20e, 4-(3-(1H-imidazol-1-yl)propoxy)-2-(4-chlorophenyl)-6-(furan-2-yl)quinoline]	65.73%	73.61%	90.65%	56.29%	89.64%

— paper PMC8725837, “2-Arylquinolines as novel anticancer agents with dual EGFR/FAK kinase inhibitory activity: synthesis, biological evaluation, and molecular modelling insights” (Journal of Enzyme Inhibition and Medicinal Chemistry, 2021)
